≈ marks a conversion by molar mass, not a printed value.
Columns and labels:
Rotarod performance = assay type: in vivo; conditions: mice, 10 or 30 mg/kg, compared with clozaril at 3 mg/kg
Protocol: In the test, test animals are placed on a horizontally oriented, rotating cylinder (rod) suspended above a cage floor. The test animals naturally try to stay on the rotating cylinder, or rotarod, and avoid falling to the ground. Test animals are administered with various compounds (e.g., compounds of the invention or control compounds). The length of time that a given animal stays on this rotating rod is a measure of the animal's balance, coordination, physical condition, and motor-planning. The speed of the rotarod is mechanically driven, and can be held constant.
In the test, mice were placed on a horizontally oriented, rotating cylinder (rod) suspended above a cage floor, which was low enough not to injure the animal, but high enough to induce avoidance of fall. The mice naturally try to stay on the rotating cylinder, or rotarod, and avoid falling to the ground.

[1] = Microsomal stability, human; assay type: in vitro ADME
human D2R/β-arrestin [2] = biological target: T1, human D2R/β-arrestin (Homo sapiens (Human), UniProt P14416); experiment: Gi/cAMP agonist assay (Lance Ultra cAMP, Forskolin); assay type: cell-based; conditions: CHO-K1 cell line expressing human D2R/β-arrestin
T1 sequence (P14416 whole entry): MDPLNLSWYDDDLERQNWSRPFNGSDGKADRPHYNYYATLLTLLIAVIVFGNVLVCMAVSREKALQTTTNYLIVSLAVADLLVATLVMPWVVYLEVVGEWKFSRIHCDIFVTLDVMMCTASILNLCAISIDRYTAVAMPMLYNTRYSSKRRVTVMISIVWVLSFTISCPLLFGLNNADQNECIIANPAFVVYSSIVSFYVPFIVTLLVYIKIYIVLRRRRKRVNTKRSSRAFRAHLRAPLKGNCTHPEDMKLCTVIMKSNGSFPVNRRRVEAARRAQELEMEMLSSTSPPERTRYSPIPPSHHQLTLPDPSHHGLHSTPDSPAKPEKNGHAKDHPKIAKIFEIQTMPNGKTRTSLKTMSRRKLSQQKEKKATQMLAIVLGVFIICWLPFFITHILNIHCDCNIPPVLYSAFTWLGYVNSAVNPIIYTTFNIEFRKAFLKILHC
How it was run: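 Read-out was Lance Ultra competitive TR-FRET (Eu-cAMP tracer plus ULight-anti-cAMP) following forskolin-induced cAMP production. Before forskolin stimulation, compounds were pin-transferred onto the seeded cells for 10 min at 37 °C.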

Plasma stability, human = assay type: in vitro ADME
[3] = Microsomal stability, mouse
Solubility in PBS = assay type: physicochemical; conditions: aqueous buffer
[4] = Microsomal stability, rat; assay type: in vitro ADME
Caco2 = Caco2 permeability; assay type: in vitro ADME; set-up: unit not given beside the values; conditions: for Caco2 A-B: A-B direction; for Caco2 B-A: B-A direction
plasma protein [5] = experiment: Plasma protein binding, human; assay type: in vitro ADME; conditions: plasma, read-out: Plasma Protein Binding % bound
human D2R/β-arrestin [6] = biological target: T1, human D2R/β-arrestin; experiment: cell-based; conditions: cAMP Antagonist, CHO-K1 cell line expressing human D2R/β-arrestin; quinpirole used as agonist
plasma protein [7] = experiment: Plasma protein binding, mouse; assay type: in vitro ADME; conditions: plasma, read-out: Plasma Protein Binding % bound
plasma protein [8] = experiment: Plasma protein binding, rat; assay type: in vitro ADME; conditions: plasma, read-out: Plasma Protein Binding % bound
Plasma stability, rat = assay type: in vitro ADME
human D2R/β-arrestin [9] = biological target: T1, human D2R/β-arrestin; experiment: cell-based; conditions: β-arrestin Antagonist, CHO-K1 cell line expressing human D2R/β-arrestin; quinpirole used as agonist
human D2R/β-arrestin [10] = biological target: T1, human D2R/β-arrestin; experiment: β-Arrestin agonist assay (PathHunter); assay type: cell-based; conditions: CHO-K1 cell line expressing human D2R/β-arrestin
How it was run: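 Readout follows addition of Buffer:Emerald II:Galactor-Star reagent (19:5:1) to agonist-treated plates, measured as luminescence or fluorescence.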

D2 = D2 (Homo sapiens (Human), UniProt P14416); experiment: D2 radioligand binding assay
Sequence of D2 (P14416 whole entry): as above

[11] = Plasma protein binding, human; assay type: in vitro ADME; conditions: plasma, read-out: Plasma Protein Binding % bound
[12] = Plasma protein binding, mouse; assay type: in vitro ADME; conditions: plasma, read-out: Plasma Protein Binding % bound
[13] = Plasma protein binding, rat; assay type: in vitro ADME; conditions: plasma, read-out: Plasma Protein Binding % bound
human D2R/β-arrestin [14] = biological target: T1, human D2R/β-arrestin; conditions: CHO-K1 cell line expressing human D2R/β-arrestin, β-arrestin and Gi/cAMP pathways, FIG. 1
MDR1-MDCKII = MDR1-MDCKII permeability assay; assay type: in vitro ADME
Source text: MDR1-MDCKII Permeability Assay
This is a standard permeability assay that predicts brain penetration. It was ran by the CRO Absorption Systems (www.absorption.com/drug-discovery/permeability/cell-based/).

Structure (SMILES) | Microsomal Stability: % remaining after 60 minutes [1] [%] | EC50 (human D2R/β-arrestin [2]) [nM] | Plasma Stability: % remaining after 5 hours (Plasma stability, human) | Microsomal Stability: % remaining after 60 minutes [3] | solubility (Solubility in PBS) [µM] | Microsomal Stability: % remaining after 60 minutes [4] [%] | Caco2 A-B (Caco2) | Caco2 B-A (Caco2) | IC50 (human D2R/β-arrestin [6]) [nM] | Plasma Stability: % remaining after 5 hours (Plasma stability, rat) | IC50 (human D2R/β-arrestin [9]) [nM] | Plasma Stability: % remaining after 5 hours (Plasma stability, mouse) | EC50 (human D2R/β-arrestin [10]) [nM] | Ki (D2) [nM] | fraction unbound [11] | fraction unbound [12] | fraction unbound [13] | also measured
COc1cccc(C(NC(=O)C2CCN(CCOc3ccccc3)CC2)c2ccccn2)c1 (stereo not shown) [Compound 35] | 83 | 1000 to 10000 | 100% | 74% | 441 (≈ 196 µg/mL) | 80 | 26.7 | 46.7 | 1000 to 10000 | 99.6% | 1000 to 10000 | 98% | > 30000 | – | – | – | – | catalepsy in the rotarod test (Rotarod performance): promotes far less catalepsy than the known antipsychotic Clozapine at efficacious doses; fraction unbound (plasma protein [5]): 0.086; fraction unbound (plasma protein [7]): 0.074; fraction unbound (plasma protein [8]): 0.042
O=C(NC(c1ccc(Cl)cc1)c1ccccn1)C1CCN(CCOc2ccccc2Cl)CC1 (stereo not shown) [Compound 66, 1-(2-(2-chlorophenoxy)ethyl)-N-((4-chlorophenyl)(pyridin-2-yl)methyl)piperidine-4-carboxamide] | 46 | 10000 to 30000 | 99.7% | 7% | 10.5 (≈ 5.09 µg/mL) | 35 | 15.1 | 2.4 | < 100 | 88.1% | < 100 | 100% | > 30000 | 100 to 1000 | 0.007 | 0.008 | 0.006 | –
O=C(NC(c1ccc(Cl)cc1)c1ccccn1)C1CCN(CCOc2ccc(F)cc2F)CC1 (stereo not shown) [Compound 115, N-((4-chlorophenyl)(pyridin-2-yl)methyl)-1-(2-(2,4-difluorophenoxy)ethyl)piperidine-4-carboxamide] | 63 | 100 to 1000 | 91.2% | 26% | 220 (≈ 107 µg/mL) | 77 | 30.4 | 11.5 | > 30000 | 98.0% | 1000 to 10000 | 86.2% | > 30000 | – | 0.008 | 0.015 | 0.005 | –

The next lines start with results.

Microsomal Stability: % remaining after 60 minutes [1] [%] | EC50 (human D2R/β-arrestin [2]) [nM] | Plasma Stability: % remaining after 5 hours (Plasma stability, human) | Microsomal Stability: % remaining after 60 minutes [3] | solubility (Solubility in PBS) [µM] | Microsomal Stability: % remaining after 60 minutes [4] [%] | Caco2 A-B (Caco2) | Caco2 B-A (Caco2) | IC50 (human D2R/β-arrestin [6]) [nM] | Plasma Stability: % remaining after 5 hours (Plasma stability, rat) | IC50 (human D2R/β-arrestin [9]) [nM] | Plasma Stability: % remaining after 5 hours (Plasma stability, mouse) | EC50 (human D2R/β-arrestin [10]) [nM] | Ki (D2) [nM] | fraction unbound [11] | fraction unbound [12] | fraction unbound [13] | Structure (SMILES) | also measured
– | < 100 | – | m0% | – | – | – | – | > 30000 | – | 100 to 1000 | – | > 30000 | 100 to 1000 | – | – | – | CN(CC1CCN(CCOc2ccccc2)CC1)C(c1ccc(Cl)cc1)c1ccccn1 (stereo not shown) [Compound 79, 1-(4-chlorophenyl)-N-methyl-N-((1-(2-phenoxyethyl)piperidin-4-yl)methyl)-1-(pyridin-2-yl)methanamine] | functional profile at D2R (antagonist mode) (human D2R/β-arrestin [14]): representative β-arrestin biased D2R antagonists; MDR1-MDCKII A-B (MDR1-MDCKII; A-B direction): 6.17; MDR1-MDCKII B-A (MDR1-MDCKII; B-A direction): 22.1
63 | > 30000 | h100, m100, r100% | 6% | – | 20 | – | – | < 100 | h100, m100, r100% | 100 to 1000 | h100, m100, r100% | > 30000 | 100 to 1000 | 0.014 | 0.023 | 0.005 | Clc1ccc(C(NCC2CCN(CCOc3ccccc3)CC2)c2ccccn2)cc1 (stereo not shown) [Compound 114, 1-(4-chlorophenyl)-N-((1-(2-phenoxyethyl)piperidin-4-yl)methyl)-1-(pyridin-2-yl)methanamine] | –
